Data: patent US20250241948A1, “Engineered Extracellular Vesicle Delivery Systems and Uses Thereof” (The Texas A&M University System, priority 2020, published 2025)

Legend:
Format in all cases: cell-based, human
[1] = test system: GFP-expressing A549 cells; experiment: siRNA-mediated GFP knockdown; conditions: lipid-siRNA complexes following electroporation, no EV
Experimental: Quantification of siRNA knockdown in A549 cells: To evaluate the knockdown efficiency of EV-mediated siRNA delivery within the constitutively expressing-GFP-A549 cells over time, GFP fluorescence was measured and quantified using a plate reader (Cytation 5) every day for 12 days (34). To ensure the decrease of green fluorescence intensity is due to the RNA interference of GFP-siRNA in the cells and not caused by the cytotoxicity of the delivery system, each sample type or condition was delivered with scrambled siRNA as a control. The knockdown efficiency was calculated using the below equation: […]
where Fsi is the fluorescence of the well using GFP-siRNA, Fsc is the fluorescence of the well using corresponding scrambled siRNA, Fbg is the fluorescence background of the media without cells, Fosi is the initial fluorescence of the well just prior to delivery for the GFP-siRNA formulations and Fosc is the initial fluorescence of the well prior to delivery of the corresponding scrambled siRNA control group. Commercial Lipofectamine® RNAiMax formulation was used as a positive control to compare the knockdown efficiency between samples. The formulation was prepared according to the manufacturer's instruction. Briefly, 0.3 μl of Lipofectamine® RNAiMax was used to deliver 1 pmol of siRNA. […] Area under the curve (knockdown efficiency vs time) was calculated to determine the difference in duration using GraphPad Prism 7 software.
siRNA knockdown efficiency: To evaluate the knockdown efficiency of LbL-EV mediated siRNA delivery within GFP-expressing A549 cells, GFP fluorescence was measured and quantified using the same apparatus (Cytation 5) every day as previously described (34, 63). The knockdown efficiency of siRNA-GFP was calculated by normalizing each sample type/condition to each individual negative control treated with scrambled siRNA. […] Area under the curve (knockdown efficiency vs time) was calculated by GraphPad Prism 7 software to determine the overall knockdown efficiency of each condition. […]

A549 cells = experiment: DOX cancer killing efficiency (MTS assay); conditions: A549, 3 days incubation
Experimental: (§1) DOX cancer killing efficiency: The effects of DOX-loaded vesicles on A549/CCL210 cells were done by CellTiter 96® Aqueous Cell Proliferation assay (Promega) (MTS assay) to assess relative metabolic activity of the cells. Prior to MTS treatment, DOX-loaded vesicles were incubated with cultured A549/CCL210 cells at 60-70% confluency for 3 days at varying doses. The MTS assays were conducted after incubation for 3 days, following the manufacturer's instructions. Untreated A549 or CCL210 cells were used as positive control groups (assuming 100% metabolic activity) for normalization. Free DOX (unencapsulated) and DOX-loaded PLGA NPs were prepared as comparison groups. To obtain dose-response curves, metabolic activity was plotted versus the amount of DOX administered, which was determined based on spectrophotometric analysis of eEV/LbL-eEV/PLGA NPs. The sigmoidal dose-response curves were fitted with Hill's equation using GraphPad software: […]
(§2) where Max is the Y value at the top plateau and Min is the Y value at the bottom plateau. IC50 (inhibitory concentration, 50%) is the X value when the response is halfway between Min and Max.

CCL-210 cells = experiment: DOX cancer killing efficiency (MTS assay); conditions: CCL210, 3 days incubation
Experimental: as §1, §2

CCCCCCCCCCCCCCCC(=O)OC[C@H](COP(=O)([O-])OCC[N+](C)(C)C)OC(=O)CCCCCCCCCCCCCCC [DPPC, 1,2-dipalmitoyl-sn-glycero-3-phosphocholine]
GFP down-regulation by lipid-siRNA complexes [1]: not able to down-regulate GFP expression

COc1cccc2c1C(=O)c1c(O)c3c(c(O)c1C2=O)C[C@@](O)(C(=O)CO)C[C@@H]3O[C@H]1C[C@H](N)[C@H](O)[C@H](C)O1 [Free DOX, doxorubicin]
IC10 of DOX (A549 cells): 0.510 μ/ml
IC90 of DOX (A549 cells): 0.690 μ/ml
IC10 of DOX (CCL-210 cells): 0.200 μ/ml
IC50 of DOX (CCL-210 cells): 0.400 ± 0.024 μ/ml
IC90 of DOX (CCL-210 cells): 0.780 μ/ml

CCCCCCCC/C=C\CCCCCCCC(=O)O[C@H](COC(=O)CCCCCCCCCCCCCCC)COP(=O)([O-])OCC[N+](C)(C)C [POPC, 1-Palmitoyl-2-oleoyl-sn-glycero-3-phosphocholine]
GFP down-regulation by lipid-siRNA complexes [1]: not able to down-regulate GFP expression

CCCCCCCC/C=C\CCCCCCCC(=O)O[C@H](COC(=O)CCCCCCCCCCCCCCC)COP(=O)(O)OCC(O)CO (some centres unmarked) [POPG, 1-Palmitoyl-2-oleoyl-sn-glycero-3-phosphoglycerol]
GFP down-regulation by lipid-siRNA complexes [1]: not able to down-regulate GFP expression
